Experimental data reported in PubChem BioAssay (NCI).
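Compound exposure: 48 hours, 5 concentrations, 96-well plates. GI50 marks 50% less growth. TGI: total growth inhibition.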

What was measured:
Assay in all cases: NCI-60 cell line screen, 48 h
CCRF-CEM leukemia = test system: CCRF-CEM leukemia
OVCAR-3 ovarian = test system: OVCAR-3 ovarian
SNB-75 CNS = test system: SNB-75 CNS
UO-31 renal = test system: UO-31 renal
M14 melanoma = test system: M14 melanoma
NCI-H460 lung = test system: NCI-H460 lung
OVCAR-8 ovarian = test system: OVCAR-8 ovarian
HOP-92 NSCLC = test system: HOP-92 NSCLC
SR leukemia = test system: SR leukemia
U251 CNS = test system: U251 CNS

Structure (SMILES) | GI50 (CCRF-CEM leukemia) [µM] | TGI (CCRF-CEM leukemia) [µM] | GI50 (OVCAR-3 ovarian) [µM] | TGI (OVCAR-3 ovarian) [µM] | GI50 (SNB-75 CNS) [µM] | TGI (SNB-75 CNS) [µM] | GI50 (UO-31 renal) [µM] | TGI (UO-31 renal) [µM] | GI50 (M14 melanoma) [µM] | TGI (M14 melanoma) [µM] | GI50 (NCI-H460 lung) [µM] | TGI (NCI-H460 lung) [µM] | GI50 (OVCAR-8 ovarian) [µM] | TGI (OVCAR-8 ovarian) [µM] | GI50 (HOP-92 NSCLC) [µM] | TGI (HOP-92 NSCLC) [µM] | GI50 (SR leukemia) [µM] | TGI (SR leukemia) [µM] | GI50 (U251 CNS) [µM] | TGI (U251 CNS) [µM]
Cc1ccc(Sc2cc3c(oc2=O)-c2ccccc2OC3O)cc1 (stereo not given) | 6.73 | 78.5 | 33.3 | 91.4 | 30.5 | 81.2 | 21.7 | 50.4 | 22.4 | 43.5 | 22.4 | 54.5 | 27.8 | 71.3 | 23.4 | 51.9 | 18.4 | 46.3 | 21.1 | 42.3
NNC(=O)C(=O)N/N=C(\CCC(=O)Nc1ccc(Cl)cc1)Cc1nc2ccccc2s1 |  | 77.1 |  | > 100 |  | > 100 |  | > 100 |  | 66.5 |  | > 100 |  | > 100 |  | > 100 |  | 68.5 |  | > 100
O=S1Nc2c(Cl)cc(Cl)c(Cl)c2S1 (stereo not given) |  | > 100 |  | > 100 |  | > 100 |  | > 100 |  | > 100 |  | > 100 |  | > 100 |  | > 100 |  | > 100 |  | > 100
CCN(Cc1c(Cl)cccc1Cl)c1ccc(CO)c(Cl)c1 | 15 | 36.6 | 0.232 | 1.07 | 11 | 25.3 | 12.6 | 26.2 | 15.5 | 30.9 | 0.171 | 13.9 | 13.7 | 29.7 | 0.606 | 9.64 | 12.8 | 36.7 | 0.372 | 15.3
Cc1cc(Nc2cc(N)ncn2)c(=O)n2c1C(=O)NC21CCCCC1 | > 100 | > 100 | > 100 | > 100 | 9.32 | > 100 | 51.8 | > 100 | > 100 | > 100 | > 100 | > 100 | > 100 | > 100 | 13.3 | > 100 | > 100 | > 100 | 83.7 | > 100
CC(=O)c1cc(O)c2ccccc2c1O | 19.2 | > 100 | 17.7 | 37.5 | 15.7 | 32.8 | 12.1 | 25.5 | 19.7 | 36.7 | 27 | 76.8 | 20.2 | 38.6 | 16.6 | 31 | 28 | > 100 | 18.6 | 33.6
O=C1C(Cl)=C(Nc2cccc(C(F)(F)F)c2)C(=O)N1Cc1ccc(Cl)cc1 | 0.59 | > 100 | 0.16 | 5.76 | 1.07 | 20 | 1.11 | 33.8 | 1.34 | 18.5 | < 0.0461 | 13.3 | 0.699 | 23.3 | 15 | 33.1 | < 0.0219 | > 65.3 | 0.0371 | 13.1
O=NN(CCCl)C(=O)NC1CCC(CC2CCC(NC(=O)N(CCCl)N=O)CC2)CC1 (stereo not given) |  | 50.7 |  | > 67.4 |  | 42.5 |  | 99.9 |  | > 100 |  | > 100 |  | > 31.6 |  | > 76.6 |  | 88.7 |  | 46.2
Nc1ncc(-c2cccc(S(N)(=O)=O)c2)c2scc(-c3ccc(F)c(Cl)c3)c12 | 6.12 | > 22.2 | 5.42 | 12.5 | 6.11 | > 23 | 2.22 | 21 | 7.54 | 16.8 | 3.8 | 8.08 | 6.38 | > 22.6 | 5.14 | 18.4 | 7.12 | > 15.9 | 6.77 | > 17.5
O=c1oc2c(C(F)(F)F)cccc2cc1-c1csc(Nc2ccc(OCCF)cc2)n1 | 0.0353 | > 69.2 | 0.0357 | 5.75 | 0.0302 | 12 | 0.0785 | 22.5 | 0.0282 | 1.14 | 0.0357 |  | 0.0393 | 7.66 | 0.0975 | 3.88 | 0.0383 | > 43.6 | 0.0376 | 12
OCCN1CCN(CC/C=C2/c3ccccc3Sc3ccc(Cl)cc32)CC1 |  | 23.6 |  | 27.9 |  | 12.3 |  | 27.3 |  | 6.24 |  | 16.3 | 15.2 | 29.1 |  | 20.9 |  | 34.3 |  | 25.6
CCCCCCCCCCC(C)CCCCCCC(=O)O (stereo not given) |  | > 100 |  | > 100 |  | > 100 |  | > 100 |  | > 100 |  | > 100 |  | > 100 |  | > 100 |  | > 100 |  | > 100
Cc1coc2c1C(OC(=O)C(C)C)C1(C)C(C)CCC(O)C1C2=O (stereo not given) |  | > 100 |  | > 100 |  | > 100 |  | > 100 |  | > 100 |  | > 100 |  | > 100 |  | > 100 |  | > 100 |  | > 100
